The source made the active and inactive calls. The rule behind the calls is not given here.
System: GENE-TOX genotoxicity assays, various organisms and cells
Experiment: GENE-TOX mutagenicity studies
Details: for call: Assay Type: In vivo carcinogenicity studies
[1] = Species/Cell Type: Drosophila melanogaster, Assay Type: Sex-linked recessive lethal gene mutation, Assay Code: SRL+, Evaluation Type: Evaluation A (Pre-1980)
[2] = Species/Cell Type: Human diploid fibroblasts, Assay Type: Unscheduled DNA synthesis (UDS) in vitro, DNA effects, Assay Code: UDH-, Evaluation Type: Evaluation A (Pre-1980)
[3] = Species/Cell Type: Human lymphocytes or leukocytes, Assay Type: Chromosome aberrations in vitro, Assay Code: CY7-, Evaluation Type: Evaluation A (Pre-1980)
[4] = Species/Cell Type: Mouse, Sex: Male, Assay Type: Sperm morphology, Assay Code: SPI-, Evaluation Type: Evaluation A (Pre-1980)
[5] = Species/Cell Type: Nonhuman, Assay Code: CCGT, Evaluation Type: Evaluation A (Pre-1980)
[6] = Species/Cell Type: Saccharomyces cerevisiae, Assay Type: Forward gene mutation, Assay Code: YEF+, Evaluation Type: Evaluation A (Pre-1980)
[7] = Species/Cell Type: Saccharomyces cerevisiae, Assay Type: Mitotic recombination or gene conversion, Assay Code: YEC+, Evaluation Type: Evaluation A (Pre-1980)
[8] = Species/Cell Type: Salmonella typhimurium (one or more of the five standard strains: TA98, TA100, TA1535, TA1537, and TA1538), Assay Type: Histidine reverse gene mutation, Ames assay, Assay Code: SAL+, Evaluation Type: Evaluation A (Pre-1980)
[9] = Species/Cell Type: Salmonella typhimurium (one or more of the five standard strains: TA98, TA100, TA1535, TA1537, and TA1538), Assay Type: Histidine reverse gene mutation, Ames assay, Assay Code: SALT, Evaluation Type: Evaluation A (Pre-1980)
[10] = Species/Cell Type: Mammalian polychromatic erythrocytes, Assay Type: Micronucleus test, chromosome aberrations, Assay Code: MNTT, Evaluation Type: Evaluation A (Pre-1980)
[11] = Species/Cell Type: Rodents, Sex: Male, Assay Type: Dominant lethal test, Assay Code: DLT-, Evaluation Type: Evaluation A (Pre-1980)
[12] = Species/Cell Type: Human diploid fibroblasts, Assay Type: Unscheduled DNA synthesis (UDS) in vitro, DNA effects, Assay Code: UDH+, Evaluation Type: Evaluation A (Pre-1980)
[13] = Species/Cell Type: Nonhuman, Assay Type: Sister-chromatid exchange (SCE) in vitro, Assay Code: SC2+D, Dose Response: With dose response, Evaluation Type: Evaluation B (Post-1980)
[14] = Species/Cell Type: Nonhuman, Assay Code: CCG+, Evaluation Type: Evaluation A (Pre-1980)

[N-]=[N+]=[N-]
mutagenic call (Species/Cell Type: Arabidopsis species, Assay Type: Gene mutation, Assay Code: ARMT, Evaluation Type: Evaluation A (Pre-1980)): no conclusion
mutagenic call [1]: active; positive
mutagenic call (Species/Cell Type: Escherichia coli WP2, Assay Type: Tryptophan reverse gene mutation, Assay Code: WP2T, Evaluation Type: Evaluation A (Pre-1980)): no conclusion
mutagenic call (Species/Cell Type: Escherichia coli WP2 UVRA, Assay Type: Tryptophan reverse gene mutation, Assay Code: WPU-, Evaluation Type: Evaluation A (Pre-1980)): inactive; negative
mutagenic call (Species/Cell Type: Glycine max (soybean), Assay Type: Gene mutation, Assay Code: GLM+, Evaluation Type: Evaluation A (Pre-1980)): active; positive
mutagenic call (Species/Cell Type: Hordeum vulgare (barley), Assay Type: Gene mutation, Assay Code: HOM+, Evaluation Type: Evaluation A (Pre-1980)): active; positive
mutagenic call [2]: inactive; negative
mutagenic call [3]: inactive; negative
mutagenic call (Species/Cell Type: Human lymphocytes, Assay Type: Sister-chromatid exchange (SCE) in vitro, Assay Code: SCL+, Evaluation Type: Evaluation B (Post-1980)): active; positive
mutagenic call (Species/Cell Type: Human, Assay Type: Sister-chromatid exchange (SCE) in vitro, Assay Code: SC1+, Evaluation Type: Evaluation B (Post-1980)): active; positive
mutagenic call (Species/Cell Type: Mouse lymphoma (L5178Y) cells, Assay Type: Forward gene mutation at the thymidine kinase (TK) locus, chromosome aberrations, Assay Code: L51+, Evaluation Type: Evaluation A (Pre-1980)): active; positive
mutagenic call [4]: inactive; negative
call [5]: no conclusion
mutagenic call [6]: active; positive
mutagenic call [7]: active; positive
mutagenic call (Species/Cell Type: Saccharomyces cerevisiae, Assay Type: Reverse gene mutation, Assay Code: YER+*, Activation: With metabolic activation, Evaluation Type: Evaluation A (Pre-1980)): active; positive
mutagenic call [8]: active; positive
mutagenic call (Species/Cell Type: Tradescantia species, Assay Type: Chromosome aberrations, Assay Code: TRC+D, Dose Response: With dose response, Evaluation Type: Evaluation A (Pre-1980)): active; positive
mutagenic call (Species/Cell Type: Tradescantia species, Assay Type: Gene mutation, Assay Code: TRM+D, Dose Response: With dose response, Evaluation Type: Evaluation A (Pre-1980)): active; positive
mutagenic call (Species/Cell Type: Zea mays (corn), Assay Type: Gene mutation, Assay Code: ZEM+D, Dose Response: With dose response, Evaluation Type: Evaluation A (Pre-1980)): active; positive

O=NN(CCCO)CCCCO
mutagenic call [9]: no conclusion

CN1CCN(CC(=O)NN)CC1
mutagenic call (Species/Cell Type: Escherichia coli WP2, Assay Type: Tryptophan reverse gene mutation, Assay Code: WP2-, Evaluation Type: Evaluation A (Pre-1980)): inactive; negative
mutagenic call (Species/Cell Type: Saccharomyces cerevisiae, Assay Type: Mitotic recombination or gene conversion, Assay Code: YEC-*, Activation: With metabolic activation, Evaluation Type: Evaluation A (Pre-1980)): inactive; negative

Clc1cccc(-c2ccc(Cl)c(Cl)c2Cl)c1Cl
mutagenic call [10]: no conclusion
mutagenic call [4]: inactive; negative
mutagenic call [11]: inactive; negative
mutagenic call (Species/Cell Type: Syrian hamster embryo (SHE) cells, Assay Type: Cell transformation, clonal assay, Assay Code: CTC-, Evaluation Type: Evaluation A (Pre-1980)): inactive; negative

[Pb]
mutagenic call [3]: inactive; negative
mutagenic call (Species/Cell Type: Human lymphocytes or leukocytes, Assay Type: Chromosome aberrations in vivo, Assay Code: CY8T, Evaluation Type: Evaluation A (Pre-1980)): no conclusion
mutagenic call (Species/Cell Type: Human, Sex: Male, Assay Type: Sperm morphology, Assay Code: SPH+, Evaluation Type: Evaluation A (Pre-1980)): active; positive
mutagenic call (Species/Cell Type: Nonhuman bone marrow, Assay Type: Chromosome aberrations, in vivo, Assay Code: CY#-, Evaluation Type: Evaluation A (Pre-1980)): inactive; negative
call [5]: no conclusion

O=[N+]([O-])c1nccn1CC(O)CF (stereo not drawn)
mutagenic call [8]: active; positive

COc1ccc2c(ccc3c4c(ccc32)C(=O)CC4)c1
mutagenic call [9]: no conclusion

C[C@]12CCC[C@H](O1)c1c(cc3c(c1O)C(=O)c1c(O)cc(O)cc1C3=O)O2
mutagenic call [9]: no conclusion

CCN(O)CC
mutagenic call [1]: active; positive
mutagenic call [12]: active; positive
mutagenic call [10]: no conclusion
mutagenic call (Species/Cell Type: Rodents, Sex: Male, Assay Type: Dominant lethal test, Assay Code: DLTT, Evaluation Type: Evaluation A (Pre-1980)): no conclusion

CCCCNCC
mutagenic call (Species/Cell Type: Fischer rat embryo (RLV/1706) cells, Assay Type: Cell transformation, viral enhanced, Assay Code: CTR-, Evaluation Type: Evaluation A (Pre-1980)): inactive; negative

Oc1cc2ccc3cc4ccccc4c4ccc(c1)c2c34
mutagenic call (Species/Cell Type: Chinese hamster lung (V79) cells, Assay Type: Forward gene mutation at the HPRT or ouabain locus, Assay Code: V79-, Evaluation Type: Evaluation A (Pre-1980)): inactive; negative
call (Species/Cell Type: Nonhuman, Assay Code: CCG+L, Evaluation Type: Evaluation A (Pre-1980)): active; positive
mutagenic call (Species/Cell Type: Salmonella typhimurium (one or more of the five standard strains: TA98, TA100, TA1535, TA1537, and TA1538), Assay Type: Histidine reverse gene mutation, Ames assay, Assay Code: SAL+*, Activation: With metabolic activation, Evaluation Type: Evaluation A (Pre-1980)): active; positive

C[n+]1c2ccccc2cc2cccc(N)c21
mutagenic call [6]: active; positive

CC(S)C(=O)NCC(=O)O (stereo not drawn)
mutagenic call (Species/Cell Type: Mammalian polychromatic erythrocytes, Assay Type: Micronucleus test, chromosome aberrations, Assay Code: MNTT, Evaluation Type: Evaluation B (Post-1980)): no conclusion

CN[C@H]1[C@@H](O[C@@H]2C3CC#CC4O[C@@]4(C4COC(=O)O4)C#CC3=C[C@H]2OC(=O)c2c(O)ccc3c(C)cc(OC)cc23)O[C@H](C)[C@H](O)[C@@H]1O (stereo partly drawn)
mutagenic call (Species/Cell Type: Escherichia coli WP2, Assay Type: Tryptophan reverse gene mutation, Assay Code: WP2+D, Dose Response: With dose response, Evaluation Type: Evaluation A (Pre-1980)): active; positive
mutagenic call (Species/Cell Type: Escherichia coli WP2 UVRA, Assay Type: Tryptophan reverse gene mutation, Assay Code: WPU+D, Dose Response: With dose response, Evaluation Type: Evaluation A (Pre-1980)): active; positive
mutagenic call (Species/Cell Type: Human diploid fibroblasts, Assay Type: Unscheduled DNA synthesis (UDS) in vitro, DNA effects, Assay Code: UDH+D, Dose Response: With dose response, Evaluation Type: Evaluation A (Pre-1980)): active; positive
mutagenic call [13]: active; positive

CC(=O)Oc1ccc2c3c1O[C@H]1[C@@H](OC(C)=O)C=C[C@H]4[C@@H](C2)N(C)CC[C@@]341
mutagenic call (Species/Cell Type: Nonhuman, Assay Type: Sister-chromatid exchange (SCE) in vivo, Assay Code: SC3+, Evaluation Type: Evaluation B (Post-1980)): active; positive

NC(=O)/C=C/c1ccc([N+](=O)[O-])o1
mutagenic call [12]: active; positive
mutagenic call [8]: active; positive

CC1C(=O)OC2CC[N+]3([O-])CC=C(COC(=O)C(C)(O)C1(C)O)C23 (stereo not drawn)
mutagenic call [1]: active; positive

O[C@@H]1C=Cc2cc3ccc4ccccc4c3cc2[C@H]1O
mutagenic call [13]: active; positive
mutagenic call [9]: no conclusion

CCCCN(N=O)C(N)=O
mutagenic call (Species/Cell Type: Arabidopsis species, Assay Type: Gene mutation, Assay Code: ARM+D, Dose Response: With dose response, Evaluation Type: Evaluation A (Pre-1980)): active; positive
mutagenic call (Species/Cell Type: Chinese hamster ovary (CHO) cells, Assay Type: Forward gene mutation at the HPRT locus, Assay Code: CHO+D, Dose Response: With dose response, Evaluation Type: Evaluation A (Pre-1980)): active; positive
mutagenic call [2]: inactive; negative
mutagenic call (Species/Cell Type: Nonhuman, Assay Type: Chromosome aberrations in vitro, Assay Code: CY&+D, Dose Response: With dose response, Evaluation Type: Evaluation A (Pre-1980)): active; positive
call [14]: active; positive
mutagenic call (Species/Cell Type: Nonhuman, Assay Type: Sister-chromatid exchange (SCE) in vitro, Assay Code: SC2+D, Dose Response: With dose response, Evaluation Type: Evaluation A (Pre-1980)): active; positive
mutagenic call [11]: inactive; negative
mutagenic call [7]: active; positive
mutagenic call (Species/Cell Type: Salmonella typhimurium, Escherichia coli, Serratia marcesens, Assay Type: Forward and reverse gene mutation, host-mediated assay, Assay Code: HMN+, Evaluation Type: Evaluation A (Pre-1980)): active; positive

O=C(O)CN(CC(=O)O)C1C[C@H]1N(CC(=O)O)CC(=O)O (stereo partly drawn)
mutagenic call (Species/Cell Type: Chinese hamster lung (V79) cells, Assay Type: Forward gene mutation at the HPRT or ouabain locus, Assay Code: V79+, Evaluation Type: Evaluation A (Pre-1980)): active; positive

Cc1cc(C2(c3ccc(O)c(C)c3)OC(=O)c3ccccc32)ccc1O
mutagenic call (Species/Cell Type: Allium cepa, Assay Type: Chromosome aberrations, Assay Code: ALC+, Evaluation Type: Evaluation A (Pre-1980)): active; positive

CC(=O)N(OS(=O)(=O)O)c1ccc2c(c1)Cc1ccccc1-2
mutagenic call (Species/Cell Type: Drosophila melanogaster, Assay Type: Sex-linked recessive lethal gene mutation, Assay Code: SRLT, Evaluation Type: Evaluation A (Pre-1980)): no conclusion

CCCc1cc(=O)[nH]c(=S)[nH]1
call [14]: active; positive

Source: PubChem BioAssay AID1259408 (Genetic Toxicology Data Bank (GENE-TOX), 2018)
